Measurements taken from PubChem BioAssay AID1645865 (Buhrlage Lab, Dana-Farber Cancer Institute and Novartis …, 2021).
Calls of active or inactive are those of the source.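 Rule for the calls: active = maximal inhibition of the USP30 enzyme reaching 30% or more across the dose series; inactive = the rest.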

The molecules below were run against Ubiquitin carboxyl-terminal hydrolase 30 (Homo sapiens) (UniProt Q70CQ3) (assay: inhibitors of ubiquitin-specific protease 30 deubiquitylating enzyme, concentration dependence, in vitro biochemical, validation of primary hits (AID 1645865)). Settings: purified USP30, Ub-rhodamine cleavage, fluorescence, 2 h.
Ubiquitin carboxyl-terminal hydrolase 30 (Homo sapiens), sequence (Q70CQ3 whole entry, looked up): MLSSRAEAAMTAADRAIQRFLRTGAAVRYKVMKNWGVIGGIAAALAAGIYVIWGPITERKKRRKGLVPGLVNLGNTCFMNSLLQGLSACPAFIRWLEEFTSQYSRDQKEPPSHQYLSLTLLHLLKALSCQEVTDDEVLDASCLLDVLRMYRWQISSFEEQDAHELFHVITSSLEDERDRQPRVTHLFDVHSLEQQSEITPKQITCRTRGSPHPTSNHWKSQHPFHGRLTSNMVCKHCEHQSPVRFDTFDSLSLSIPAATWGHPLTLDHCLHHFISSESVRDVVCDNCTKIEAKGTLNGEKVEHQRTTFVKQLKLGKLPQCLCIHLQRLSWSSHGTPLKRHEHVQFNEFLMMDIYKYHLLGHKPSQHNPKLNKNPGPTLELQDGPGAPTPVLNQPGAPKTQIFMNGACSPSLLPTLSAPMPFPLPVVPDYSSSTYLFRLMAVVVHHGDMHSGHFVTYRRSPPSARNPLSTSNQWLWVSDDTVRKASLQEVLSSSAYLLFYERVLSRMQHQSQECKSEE
`CC1CC[C@@]2(NC1)O[C@H]1C[C@H]3[C@@H]4CC=C5C[C@@H](O)CC[C@]5(C)[C@H]4CC[C@]3(C)[C@H]1[C@@H]2C` (stereo partly specified) gave an IC50 of 13 µM. `O=C(CNC(=O)c1cccc(F)c1)Nc1nc2ccccc2[nH]1` gave an IC50 of 21.7 µM. In the case of `COc1ccc(NC(=O)c2ccccc2OCC(=O)Nc2ccccc2C(F)(F)F)c(C)c1`, the IC50 is reported as 28.8 µM. For `Cc1ccccc1NC(=O)C(C)n1c(=O)cc(-c2ccccc2)c2c(C)nn(C)c21` (stereo unspecified), the IC50 was 2.45 µM. `COc1ccc(C2SCC(=O)Nc3c2c(=O)[nH]n3C2CCCCC2)cc1` (stereo unspecified) gave an IC50 of 30.1 µM. With `CCCCNC(=O)c1cc2cccnc2n(Cc2ccccc2)c1=O` the IC50 was > 50 µM (inactive). Work on `COc1ccc(-c2[nH]c3ccccc3c2SCCNC(=O)c2ccc(S(=O)(=O)N3CCOCC3)cc2)cc1` yielded an IC50 of 28.7 µM. For `Nc1ncnc(SCc2ccc(Cl)cc2)n1`, the IC50 was 17.1 µM. Work on `COC(=O)c1ccc2c(=O)n(CCCCCC(=O)NCCc3ccc(S(N)(=O)=O)cc3)c(=O)[nH]c2c1` yielded an IC50 of 6.13 µM. In the case of `CSc1nc2ncc3c(=O)n(CCc4ccccc4)ccc3n2n1`, the IC50 is reported as > 50 µM (inactive). `COc1ccc(N2CCN(Cc3nnnn3Cc3ccc4c(c3)OCO4)CC2)cc1` was tested, and the IC50 was > 50 µM (inactive). `COc1cccc(NC(=O)C2C3C=CC4(O3)C2C(=O)N(CCc2ccccc2Cl)C4C(=O)NC2CCCCC2)c1` (stereo unspecified) gave an IC50 of 41.2 µM. `C=C(NC(=O)C(=C)NC(=O)c1csc(C2=N[C@@H]3c4csc(n4)[C@H]4NC(=O)c5csc(n5)[C@H]([C@](C)(O)[C@@H](C)O)NC(=O)C5CSC(=N5)/C(=C/C)NC(=O)C([C@@H](C)O)NC(=O)c5csc(n5)[C@]3(CC2)NC(=O)[C@H](C)NC(=O)C(=C)NC(=O)[C@H](C)NC(=O)C([C@@H](C)CC)NC2C=Cc3c(C(C)O)cc(nc3[C@H]2O)C(=O)OC4C)n1)C(N)=O` (stereo partly specified) was tested, and the IC50 was > 50 µM (inactive). In the case of `CC1(C)CC2CC(C)(CN2Cc2c(O)ccc3ccccc23)C1` (stereo unspecified), the IC50 is reported as > 50 µM (inactive). For `CC(=O)c1oc2nc3c(c(-c4ccc(Cl)cc4)c2c1N)CCc1ccccc1-3`, the IC50 was > 50 µM (inactive). In the case of `CCN(CC)c1nc(F)c2c(c1F)S(=O)(=O)CCN2Cc1ccccc1`, the IC50 is reported as > 50 µM (inactive). For `COc1ccc(C(=O)CSc2ccc3nnc(CCNC(=O)c4ccc(OC)cc4)n3n2)cc1`, the IC50 was > 50 µM (inactive). `Cc1cc2nc(Oc3cccc(Cl)c3)c3ccccc3n2n1` gave an IC50 of 2.04 µM. With `COc1cccc(N2CCN(C(=O)C3CCN(c4nc(NC(C)=O)ns4)CC3)CC2)c1` the IC50 was > 50 µM (inactive). With `Cc1cc(O)c(Oc2cc(C)cc(O)c2O)c(O)c1` the IC50 was 33.1 µM. For `COCCN(C1CCN(CCc2ccc(Cl)cc2)CC1)S(=O)(=O)c1cccc2cccnc12`, the IC50 was > 50 µM (inactive). Molecule `CN(C)C(=O)CSc1nnc(-c2cccc(Cl)c2)n1-c1ccc(Cl)c(C(F)(F)F)c1` has an IC50 of 2.08 µM. For `Cc1ccccc1N1C(=O)/C(=C\c2cccn2C)c2ccccc2C1=O`, the IC50 was > 50 µM (inactive). `O=C1CC(C(=O)Nc2ccccc2F)n2nc(-c3ccccc3)cc2N1` (stereo unspecified) showed an IC50 of 24.3 µM. `COc1ccccc1NC(=O)Cn1cc(C(=O)c2ccc(C)cc2)c(=O)c2ccccc21` gave an IC50 of 22.9 µM. Work on `COCCCn1c(C(=O)NCCc2ccccc2)cc2c(=O)n3cccc(C)c3nc21` yielded an IC50 of 34.7 µM. With `c1ccc(CN2CCN(c3nc4ccccc4n4nnnc34)CC2)cc1` the IC50 was > 50 µM (inactive). Molecule `Cc1cnnn1-c1ccc(C(=O)Nc2ccc(Cl)cc2)cc1` has an IC50 of 29.5 µM. For `O=C(/C=C/c1c(F)cccc1Cl)N1CCc2ccccc2C1`, the IC50 was > 50 µM (inactive). `Cc1ccc(NC(=O)c2sc3ncn(CC(=O)N4CCN(c5ccccn5)CC4)c(=O)c3c2C)c(Br)c1` gave an IC50 of 8.36 µM. `CCOCCCn1c(SCC(=O)Nc2ccccc2C(F)(F)F)nc2ccccc2c1=O` was tested, and the IC50 was 17.1 µM. Work on `CCCCN(C)C(=O)c1cc2c(=O)n3cccc(C)c3nc2n1Cc1ccccc1` yielded an IC50 of 36.8 µM. `O=C(CN1C(=O)NC2(CCCCC2)C1=O)Nc1ccc([N+](=O)[O-])cc1` showed an IC50 of 33.5 µM. `CCOc1ccc(Nc2cc(C(=O)NCCc3ccccc3)c3ccccc3n2)cc1` gave an IC50 of 13.6 µM. With `O=C(c1ccc(N2CCc3ccccc32)nn1)N1CCc2ccccc21` the IC50 was > 50 µM (inactive). With `CCc1ccccc1NC(=O)c1cc(-c2ccccn2)n[nH]1` the IC50 was 24 µM.
